# Legend:
# [1] = tested on: primary human aortic smooth muscle cells (HASMCs); assay: Immunoblot of p-Smad2 and SM-calponin in control and FRS2α knockdown HASMCs treated with SB431542; format: cell-based; conditions: SB431542 10 μM
# Excerpt: FIGS. 2A-2F are images and plots showing that FRS2α knockdown increases smooth muscle marker gene expression via the TGFβ pathway in primary human aortic smooth muscle cells (HASMCs). […] Blots are representative of four independent experiments. […] R-actin was used for sample loading normalization. […] FIGS. 2D-2F show immunoblots of smooth muscle markers, phosphorylated Smad2 (p-Smad2), and TGFβR1 expression in control and FRS2α knockdown HASMCs treated with SB431542 ([…]), TGFβR2 or Smad2 shRNA lentiviruses. Blots are representative of three independent experiments.
# The TGFβR1 kinase inhibitor SB431542 (Sigma S4317) was reconstituted in DMSO (Sigma D2650) and used at a final concentration of 10 μM in cell culture.
# Mouse Tgfbr1 and Tgfbr2 shRNA lentiviral constructs were purchased from Sigma. Human FGFR1, human Smad2 and human TGFβR2 shRNA lentiviral constructs were purchased from Sigma and human FRS2α shRNA lentiviral construct was purchased from Open Biosystems. For the production of shRNA lentivirus, 3.7 μg of A8.2, 0.2 μg of VSVG, and 2.1 μg of pLKO.1 carrying the control, FGFR1, FRS2α, Smad2, or TGFβR2 shRNA were co-transfected into 293T cells using X-tremeGENE 9 DNA Transfection Reagent (Roche 06365787001). Forty-eight hours later the medium was harvested, cleared by 0.45 μm filter (PALL Life Sciences PN4184), mixed with polybrene (5 μg/ml) (Sigma H9268), and applied to cells. […]
# [2] = tested on: Apoe^−/− mice; assay: Oil Red O atherosclerotic lesion area after 7C1-siTgfbr and/or rapamycin, 4 months of high fat diet; format: in vivo, mouse
# Excerpt: FIGS. 45A-45B are a graph and a series of images showing that 7C1-siTgfbr and rapamycin suppress atherosclerosis lesion development in Apoe^−/− mice after 4 months of high fat diet. FIG. 45A: Time frame of 7C1-siTgfbr1/Tgfbr2 lipid nanoparticle and rapamycin injections. FIG. 45B: Representative photomicrographs of Oil Red O-stained atherosclerotic lesions in PBS, 7C1-siLuciferase, DMSO, Rapamycin, or 7C1-siTgfbr treated mice.
# FIG. 46 is a histogram illustrating the quantification of atherosclerotic lesions from FIG. 45B. Lesion area quantification. % Lesion area is the lesion area/total area of aorta. All data shown as mean±SD. (***p<0.001; one-way ANOVA with Newman-Keuls post hoc test for multiple comparison correction).
# Apoe^−/− and Frs2^SMCKO/Apoe^−/− male mice were fed a Western diet (40% kcal % Fat, 1.25% Cholesterol, 0% Cholic Acid) for 8 or 16 weeks (Research Diets, product #D12108) starting at the age of 8 weeks. After 8 or 16 weeks of being fed a high-fat diet, mice were anesthetized and euthanized. […] The lesions located in the aorta, aortic roots and abdominal aorta were analyzed using Oil Red 0 staining. […] The surface lesion area was quantified with ImageJ software (NIH). […]
# FIG. 46 is a histogram illustrating the quantification of atherosclerotic lesions from FIG. 45B. […]
# [3] = tested on: Apoe^−/− and Frs2α^iECKO/Apoe^−/− mice; assay: Tolerability of 7C1-let-7 injections: body weight, blood counts, serum lipids, organs, liver function, skin; format: in vivo, mouse; conditions: after 16 weeks on high cholesterol diet
# Excerpt: FIGS. 24A-24E are a series of graphs showing that 7C1-let-7 mimics treatment have no effect on mouse body weight and serum lipid profile. FIG. 24A: Time frame of gene inactivation and 7C1 lipid nanoparticle injections. FIG. 24B: Serum triglycerides, total cholesterol, and HDL-C levels from Apoe^−/− and Frs2^iECKO/Apoe^−/− mice after 16 weeks on a high cholesterol diet (NS: not significant by one-way ANOVA with Newman-Keuls post-hoc test). FIG. 24C: Individual body weights in each group were measured every week. FIGS. 24D-24E: qPCR analysis of let-7b and Tgfbr1 expression in lung endothelial cells after treatment with 7C1-let-7 particles. All data shown as mean±s.d. (*p<0.05; **p<0.01; ***p<0.001 compared with Luciferase; one-way ANOVA with Newman-Keuls post hoc test for multiple comparison correction). N=4-6 mice per group.
# Serum was obtained through centrifugation of the blood for 2 min at 10,000 rpm at 4° C. and stored at −80° C. until each assay was performed. […]
# A decline in let-7 miRs expression has been previously linked to activation of TGFβ signaling (Chen et al., 2012, Cell reports 2: 1684-1696; Chen et al, 2014 Science signaling 7, ra90). […] Measurements of the following were taken from mice in each group: body weight, complete blood counts, skin pictures, serum lipid profiles, organ weight, and whole aorta oil red-O staining and quantification (FIGS. 24C, 25, 23, 24B, 27, and 29).
compound,measurement,setting,value
NC(=O)c1ccc(-c2nc(-c3ccc4c(c3)OCO4)c(-c3ccccn3)[nH]2)cc1 [SB431542],FRS2α knockdown-induced increase in SM-calponin levels,[1],effectively attenuated
same,FRS2α knockdown-induced increase in p-Smad2 levels,[1],effectively attenuated
CO[C@H]1C[C@@H]2CC[C@@H](C)[C@@](O)(O2)C(=O)C(=O)N2CCCC[C@H]2C(=O)O[C@H]([C@H](C)C[C@@H]2CC[C@@H](O)[C@H](OC)C2)CC(=O)[C@H](C)/C=C(\C)[C@@H](O)[C@@H](OC)C(=O)[C@H](C)C[C@H](C)/C=C/C=C/C=C/1C [rapamycin],reduction in atherosclerotic lesion (% lesion area = lesion area/total area of aorta),[2],58%
"mi-let-7bH: heavily 2′-O-methyl modified double stranded let-7b miRNA mimic, 5p UGAGGuAGuAGGUUGUGUGGUU, 3p cuAuAcAAccuAcuGccuuccc","serum triglycerides, total cholesterol and HDL cholesterol levels (serum lipid profile)",[3],similar
"mi-let-7bL: lightly 2′-O-methyl modified double stranded let-7b miRNA mimic, 5p UGAGGuAGuAGGUUGUGUGGUU, 3p CuAuAcAACCuACUGCCUUCCC","serum triglycerides, total cholesterol and HDL cholesterol levels (serum lipid profile)",[3],similar

# Reference: US11326167B2, “Methods and compositions for treating atherosclerosis” (YALE UNIVERSITY, priority 2016, dated 2022)
